Measurements from publication PMC4448990 (Pharmacology Research & Perspectives, 2015).
Several values for one entry are separate records, joined by “and”; a condition that tells them apart may be missing. Identical values can stand only once. Like-named read-outs stand apart in the source and are kept apart here.

Legend:
[1] = biological target: human α2β2γ2 GABAA receptors (Homo sapiens, UniProt P18507+P47869+P47870); assay: submaximal GABA currents in Ltk cells; format: cell-based
[2] = biological target: hKv7.2 potassium channels (Homo sapiens, UniProt O43526); assay: whole-cell patch clamp, hKv7.2 in CHO cells; format: cell-based; conditions: depolarizing pulse +20 mV from holding potential −80 mV
[3] = biological target: T1, human GlyRα3 glycine receptors (Homo sapiens, UniProt O75311); assay: submaximal glycine currents in CHO cells; format: cell-based
T1 sequence (O75311 34-464): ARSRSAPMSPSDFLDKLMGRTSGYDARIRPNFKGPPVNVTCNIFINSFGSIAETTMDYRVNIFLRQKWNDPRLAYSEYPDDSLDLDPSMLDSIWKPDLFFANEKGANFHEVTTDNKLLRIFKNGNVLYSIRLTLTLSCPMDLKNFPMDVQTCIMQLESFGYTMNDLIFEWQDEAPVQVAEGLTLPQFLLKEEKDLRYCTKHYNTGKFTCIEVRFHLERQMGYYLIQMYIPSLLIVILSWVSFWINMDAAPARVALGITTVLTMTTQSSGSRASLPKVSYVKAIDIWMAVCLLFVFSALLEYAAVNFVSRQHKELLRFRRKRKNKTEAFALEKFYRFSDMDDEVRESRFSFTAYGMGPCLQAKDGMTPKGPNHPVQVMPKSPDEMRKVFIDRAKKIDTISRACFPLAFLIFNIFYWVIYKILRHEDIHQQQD

Adenosine, A1 (h) = Adenosine, A1 (h) (Homo sapiens, UniProt P30542); assay: in vitro selectivity profile; format: binding
Chain of Adenosine, A1 (h) (P30542 whole entry): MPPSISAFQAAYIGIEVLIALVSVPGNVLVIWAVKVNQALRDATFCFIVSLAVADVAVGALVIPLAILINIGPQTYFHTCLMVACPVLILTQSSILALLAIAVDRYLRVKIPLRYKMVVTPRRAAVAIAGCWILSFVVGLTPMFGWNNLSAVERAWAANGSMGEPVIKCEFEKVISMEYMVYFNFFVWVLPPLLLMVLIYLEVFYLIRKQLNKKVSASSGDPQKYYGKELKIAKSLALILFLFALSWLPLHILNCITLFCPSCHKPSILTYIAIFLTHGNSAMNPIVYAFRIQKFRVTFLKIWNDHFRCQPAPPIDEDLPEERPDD

Adenosine, A2 = assay: in vitro selectivity profile; format: binding; conditions: eslicarbazepine 400 μmol/L
Adenosine, A2A (h) = Adenosine, A2A (h) (Homo sapiens, UniProt P29274); assay: in vitro selectivity profile; format: binding
Dopamine transporter (h) = Dopamine transporter (h) (Homo sapiens, UniProt Q01959); assay: in vitro selectivity profile; format: binding
Chain of Dopamine transporter (h) (Q01959 whole entry): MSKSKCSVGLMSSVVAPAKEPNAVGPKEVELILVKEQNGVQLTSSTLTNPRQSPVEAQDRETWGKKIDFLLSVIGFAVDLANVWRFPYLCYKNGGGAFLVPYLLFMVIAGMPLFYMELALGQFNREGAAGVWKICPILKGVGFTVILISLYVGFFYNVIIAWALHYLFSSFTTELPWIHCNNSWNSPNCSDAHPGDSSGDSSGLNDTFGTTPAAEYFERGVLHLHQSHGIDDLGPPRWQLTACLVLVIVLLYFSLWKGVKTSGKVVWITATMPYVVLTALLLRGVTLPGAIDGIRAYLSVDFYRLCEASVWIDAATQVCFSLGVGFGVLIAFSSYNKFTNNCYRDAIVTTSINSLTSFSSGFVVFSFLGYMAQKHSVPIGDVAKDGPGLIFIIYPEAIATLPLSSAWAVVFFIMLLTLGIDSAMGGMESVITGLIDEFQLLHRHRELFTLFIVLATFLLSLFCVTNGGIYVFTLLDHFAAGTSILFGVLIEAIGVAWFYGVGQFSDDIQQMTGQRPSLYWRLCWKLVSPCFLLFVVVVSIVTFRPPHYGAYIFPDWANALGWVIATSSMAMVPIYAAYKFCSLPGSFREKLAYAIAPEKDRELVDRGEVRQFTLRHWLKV

Dopamine, D3 = assay: in vitro selectivity profile; format: binding; conditions: eslicarbazepine 400 μmol/L
GABA A, agonist site = assay: in vitro selectivity profile; format: binding; conditions: eslicarbazepine 400 μmol/L
[4] = test system: GABA A, BDZ, alpha 1 site; assay: in vitro selectivity profile; format: binding; conditions: eslicarbazepine 400 μmol/L
[5] = test system: GABA A, BDZ, alpha 5 site; assay: in vitro selectivity profile; format: binding; conditions: eslicarbazepine 400 μmol/L
[6] = test system: GABA A, BDZ, alpha 6 site; assay: in vitro selectivity profile; format: binding; conditions: eslicarbazepine 400 μmol/L
Glutamate, AMPA site = assay: in vitro selectivity profile; format: binding; conditions: eslicarbazepine 400 μmol/L
[7] = test system: Glutamate, NMDA, phencyclidine site; assay: in vitro selectivity profile; format: binding; conditions: eslicarbazepine 400 μmol/L
Glutamate, mGluR5 = assay: in vitro selectivity profile; format: binding; conditions: eslicarbazepine 400 μmol/L
Histamine, H1 = assay: in vitro selectivity profile; format: binding; conditions: eslicarbazepine 400 μmol/L
Histamine, H3 = assay: in vitro selectivity profile; format: binding; conditions: eslicarbazepine 400 μmol/L
Muscarinic, M5 (h) = Muscarinic, M5 (h) (Homo sapiens, UniProt P08912); assay: in vitro selectivity profile; format: binding
Chain of Muscarinic, M5 (h) (P08912 whole entry): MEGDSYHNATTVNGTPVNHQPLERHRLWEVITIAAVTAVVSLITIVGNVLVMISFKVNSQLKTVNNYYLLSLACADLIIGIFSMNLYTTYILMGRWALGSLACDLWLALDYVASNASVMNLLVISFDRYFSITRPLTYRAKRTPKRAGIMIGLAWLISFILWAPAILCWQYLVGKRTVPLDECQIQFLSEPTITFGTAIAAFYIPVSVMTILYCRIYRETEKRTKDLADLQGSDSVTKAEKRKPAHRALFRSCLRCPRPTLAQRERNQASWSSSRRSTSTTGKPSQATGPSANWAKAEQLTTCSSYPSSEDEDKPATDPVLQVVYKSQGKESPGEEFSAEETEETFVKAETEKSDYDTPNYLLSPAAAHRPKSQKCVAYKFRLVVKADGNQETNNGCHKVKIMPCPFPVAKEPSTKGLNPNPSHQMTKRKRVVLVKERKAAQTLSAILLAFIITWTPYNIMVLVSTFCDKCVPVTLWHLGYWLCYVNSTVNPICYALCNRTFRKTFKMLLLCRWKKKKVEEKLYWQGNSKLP

Opioid, kappa 1 = assay: in vitro selectivity profile; format: binding; conditions: eslicarbazepine 400 μmol/L
[8] = test system: Serotonin, 5HT1, nonselective; assay: in vitro selectivity profile; format: binding; conditions: eslicarbazepine 400 μmol/L
Serotonin, 5HT1B = assay: in vitro selectivity profile; format: binding; conditions: eslicarbazepine 400 μmol/L
Serotonin, 5HT2A (h) = Serotonin, 5HT2A (h) (Homo sapiens, UniProt P28223); assay: in vitro selectivity profile; format: binding
Chain of Serotonin, 5HT2A (h) (P28223 whole entry): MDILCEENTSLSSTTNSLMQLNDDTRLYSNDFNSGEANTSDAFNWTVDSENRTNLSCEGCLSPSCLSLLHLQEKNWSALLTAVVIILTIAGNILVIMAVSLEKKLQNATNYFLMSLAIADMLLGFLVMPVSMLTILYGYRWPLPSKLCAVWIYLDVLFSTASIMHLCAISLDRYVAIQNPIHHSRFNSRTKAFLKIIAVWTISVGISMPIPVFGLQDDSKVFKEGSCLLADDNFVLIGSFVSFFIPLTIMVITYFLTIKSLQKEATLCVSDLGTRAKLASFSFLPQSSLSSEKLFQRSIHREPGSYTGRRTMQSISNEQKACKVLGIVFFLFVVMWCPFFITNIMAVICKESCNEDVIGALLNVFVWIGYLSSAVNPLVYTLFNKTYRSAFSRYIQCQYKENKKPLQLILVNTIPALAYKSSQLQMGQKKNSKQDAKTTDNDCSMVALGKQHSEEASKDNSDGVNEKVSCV

Serotonin, 5HT3 = assay: in vitro selectivity profile; format: binding; conditions: eslicarbazepine 400 μmol/L
Sigma 1 = assay: in vitro selectivity profile; format: binding; conditions: eslicarbazepine 400 μmol/L
[9] = test system: Inositol triphosphate, IP3; assay: in vitro selectivity profile; format: binding; conditions: eslicarbazepine 400 μmol/L
[10] = test system: Corticotropin-releasing factor, nonselective; assay: in vitro selectivity profile; format: binding; conditions: eslicarbazepine 400 μmol/L
[11] = test system: Thyrotropin-releasing hormone, TRH; assay: in vitro selectivity profile; format: binding; conditions: eslicarbazepine 400 μmol/L
Angiotensin II, AT2 = assay: in vitro selectivity profile; format: binding; conditions: eslicarbazepine 400 μmol/L
Neurokinin, NK1 = assay: in vitro selectivity profile; format: binding; conditions: eslicarbazepine 400 μmol/L
Neurotensin (h) = Neurotensin (h) (Homo sapiens, UniProt P30989); assay: in vitro selectivity profile; format: binding
[12] = biological target: Anhydrase, carbonic, isozyme II (h) (Homo sapiens, UniProt P00918); assay: in vitro selectivity profile; format: biochemical
Oxygenase, COX-2 = assay: in vitro selectivity profile; format: biochemical; conditions: eslicarbazepine 400 μmol/L
[13] = biological target: Protease, caspase, CASP-10 (h) (Homo sapiens, UniProt Q92851); assay: in vitro selectivity profile; format: biochemical
[14] = biological target: Protease, caspase, CASP-2 (h) (Homo sapiens, UniProt P42575); assay: in vitro selectivity profile; format: biochemical
Chain of Protease, caspase, CASP-2 (h) (P42575 170-325 limits assumed): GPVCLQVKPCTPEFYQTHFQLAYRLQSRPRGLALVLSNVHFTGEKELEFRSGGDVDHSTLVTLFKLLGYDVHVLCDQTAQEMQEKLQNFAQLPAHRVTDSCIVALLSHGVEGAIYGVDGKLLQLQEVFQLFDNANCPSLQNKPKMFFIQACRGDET
Chain of Protease, caspase, CASP-2 (h) (P42575 348-452 limits assumed): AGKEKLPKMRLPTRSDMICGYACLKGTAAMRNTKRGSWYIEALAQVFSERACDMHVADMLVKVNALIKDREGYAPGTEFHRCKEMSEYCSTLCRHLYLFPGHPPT

[15] = biological target: Kinase, protein, PKCz (h) (Homo sapiens, UniProt Q05513); assay: in vitro selectivity profile; format: biochemical
[16] = biological target: Kinase, protein, ROCK2 (h) (Homo sapiens, UniProt O75116); assay: in vitro selectivity profile; format: biochemical
Chain of Kinase, protein, ROCK2 (h) (O75116 whole entry): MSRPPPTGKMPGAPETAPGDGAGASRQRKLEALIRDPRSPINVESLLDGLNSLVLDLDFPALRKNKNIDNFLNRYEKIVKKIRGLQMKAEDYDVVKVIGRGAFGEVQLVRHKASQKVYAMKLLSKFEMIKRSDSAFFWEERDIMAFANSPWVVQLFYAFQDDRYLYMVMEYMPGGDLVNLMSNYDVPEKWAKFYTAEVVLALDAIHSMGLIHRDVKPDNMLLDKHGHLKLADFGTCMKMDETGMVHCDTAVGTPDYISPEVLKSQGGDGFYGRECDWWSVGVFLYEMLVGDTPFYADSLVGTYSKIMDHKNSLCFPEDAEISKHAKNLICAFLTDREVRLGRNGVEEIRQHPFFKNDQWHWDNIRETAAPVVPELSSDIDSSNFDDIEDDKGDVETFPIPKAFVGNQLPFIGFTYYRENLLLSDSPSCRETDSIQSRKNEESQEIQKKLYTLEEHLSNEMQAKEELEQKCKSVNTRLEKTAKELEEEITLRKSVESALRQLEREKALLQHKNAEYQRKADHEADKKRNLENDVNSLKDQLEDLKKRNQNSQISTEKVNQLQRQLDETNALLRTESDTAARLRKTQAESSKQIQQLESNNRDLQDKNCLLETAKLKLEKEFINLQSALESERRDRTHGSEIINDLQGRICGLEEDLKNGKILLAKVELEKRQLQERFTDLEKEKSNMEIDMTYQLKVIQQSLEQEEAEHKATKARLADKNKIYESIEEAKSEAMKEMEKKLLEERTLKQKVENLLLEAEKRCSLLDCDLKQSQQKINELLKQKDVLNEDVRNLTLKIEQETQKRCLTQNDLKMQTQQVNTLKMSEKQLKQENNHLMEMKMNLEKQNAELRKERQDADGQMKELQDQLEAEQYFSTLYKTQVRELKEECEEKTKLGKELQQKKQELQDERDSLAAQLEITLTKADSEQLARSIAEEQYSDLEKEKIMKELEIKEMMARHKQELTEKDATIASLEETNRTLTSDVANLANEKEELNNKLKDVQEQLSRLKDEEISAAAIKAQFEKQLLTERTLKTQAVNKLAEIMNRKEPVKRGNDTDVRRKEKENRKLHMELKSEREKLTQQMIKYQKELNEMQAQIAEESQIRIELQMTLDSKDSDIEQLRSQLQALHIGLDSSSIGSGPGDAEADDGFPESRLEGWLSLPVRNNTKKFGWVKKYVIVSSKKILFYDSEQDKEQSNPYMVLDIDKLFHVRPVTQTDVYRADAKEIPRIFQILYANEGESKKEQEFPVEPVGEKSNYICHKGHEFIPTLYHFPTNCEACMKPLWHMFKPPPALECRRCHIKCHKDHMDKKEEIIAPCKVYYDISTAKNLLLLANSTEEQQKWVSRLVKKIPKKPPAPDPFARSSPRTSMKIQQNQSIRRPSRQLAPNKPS

[17] = cited from earlier work
[18] = test system: sodium channels endogenously expressed in N1E-115 mouse neuroblastoma cells; conditions: 250 μmol/L; ref Hebeisen et al. [2014]; cited from earlier work
[19] = Amygdala kindling, ESL 200 mg/kg i.p., 15 min, ref Soerensen et al. ([2011])
[20] = Amygdala kindling, ESL 300 mg/kg i.p., 15 min, ref Soerensen et al. ([2011])
[21] = Corneal kindling, ESL 100 mg/kg i.p., 60 min, ref Pekcec et al. ([2011])
[22] = MES test, ESL 50 mg/kg p.o., 60 min, ref Pires et al. ([2011])

Chain of human α2β2γ2 GABAA receptors (P47869 29-451): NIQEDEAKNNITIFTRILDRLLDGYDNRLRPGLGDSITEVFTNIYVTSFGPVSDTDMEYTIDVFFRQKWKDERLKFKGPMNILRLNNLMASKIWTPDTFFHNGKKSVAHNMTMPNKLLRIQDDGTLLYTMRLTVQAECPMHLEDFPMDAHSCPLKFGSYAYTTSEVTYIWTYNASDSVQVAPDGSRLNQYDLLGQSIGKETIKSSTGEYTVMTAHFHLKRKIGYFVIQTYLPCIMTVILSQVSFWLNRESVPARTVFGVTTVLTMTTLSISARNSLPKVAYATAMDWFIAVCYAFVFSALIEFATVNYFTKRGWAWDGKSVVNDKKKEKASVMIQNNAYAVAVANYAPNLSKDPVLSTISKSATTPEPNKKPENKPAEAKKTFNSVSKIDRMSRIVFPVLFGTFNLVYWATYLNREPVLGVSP
Chain of human α2β2γ2 GABAA receptors (P47870 25-512 limits assumed): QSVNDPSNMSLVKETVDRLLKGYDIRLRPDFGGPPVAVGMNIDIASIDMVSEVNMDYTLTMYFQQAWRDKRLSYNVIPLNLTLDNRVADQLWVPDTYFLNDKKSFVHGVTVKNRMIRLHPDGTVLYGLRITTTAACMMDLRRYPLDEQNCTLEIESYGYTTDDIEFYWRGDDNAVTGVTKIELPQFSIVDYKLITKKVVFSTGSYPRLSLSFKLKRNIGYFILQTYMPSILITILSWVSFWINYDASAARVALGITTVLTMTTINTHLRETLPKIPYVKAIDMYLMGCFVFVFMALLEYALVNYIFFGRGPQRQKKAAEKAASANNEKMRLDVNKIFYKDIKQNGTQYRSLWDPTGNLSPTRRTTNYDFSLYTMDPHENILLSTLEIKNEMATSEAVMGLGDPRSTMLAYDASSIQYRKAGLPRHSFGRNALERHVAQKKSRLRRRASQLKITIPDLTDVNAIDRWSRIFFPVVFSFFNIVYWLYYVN
Chain of human α2β2γ2 GABAA receptors (P18507 40-475): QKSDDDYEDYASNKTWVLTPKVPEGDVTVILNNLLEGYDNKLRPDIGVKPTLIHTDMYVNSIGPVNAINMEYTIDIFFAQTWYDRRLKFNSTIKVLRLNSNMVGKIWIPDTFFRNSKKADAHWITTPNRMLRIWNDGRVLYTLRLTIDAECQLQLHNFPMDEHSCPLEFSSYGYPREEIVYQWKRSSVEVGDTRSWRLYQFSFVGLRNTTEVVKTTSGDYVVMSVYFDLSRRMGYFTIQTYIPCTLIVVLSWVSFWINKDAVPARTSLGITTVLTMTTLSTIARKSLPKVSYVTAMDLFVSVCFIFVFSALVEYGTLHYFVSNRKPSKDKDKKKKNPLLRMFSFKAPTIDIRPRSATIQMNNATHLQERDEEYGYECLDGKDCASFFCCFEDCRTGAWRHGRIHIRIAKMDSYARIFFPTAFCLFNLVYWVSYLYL

NC(=O)N1c2ccccc2C[C@H](O)c2ccccc21 [eslicarbazepine]
GABA inward current stimulation, α2β2γ2, Mean ± SEM ([1]; 50 μmol/L): 91.6 ± 2.7
GABA inward current stimulation, α2β2γ2, Mean ± SEM ([1]; 100 μmol/L): 97.0 ± 2.7
GABA inward current stimulation, α2β2γ2, Mean ± SEM ([1]; 250 μmol/L): 88.6 ± 3.2
effect on submaximal α2β2γ2 GABA currents ([1]; 250 μmol/L): slight decrease
GABA inward current stimulation, α2β2γ2, Mean ± SEM ([1]; 500 μmol/L): 89.8 ± 4.0
effect on submaximal α2β2γ2 GABA currents ([1]; 50–500 μmol/L, exception at 250 μmol/L): did not significantly change submaximal GABA currents
IC50, KV7.2 outward currents [2]: no inhibitory effect
IC50 [3]: 1190 µM
inhibition at 400 µM (Adenosine, A1 (h)): 32.3%
% inhibition (Adenosine, A2): 0.0%
inhibition at 400 µM (Adenosine, A2A (h)): 6.81%
inhibition at 400 µM (Dopamine transporter (h)): 2.85%
% inhibition (Dopamine, D3): 0.0%
% inhibition (GABA A, agonist site): 0.0%
% inhibition [4]: 25.92%
% inhibition [5]: 23.75%
% inhibition [6]: 0.0%
% inhibition (Glutamate, AMPA site): 0.0%
% inhibition [7]: 0.0%
% inhibition (Glutamate, mGluR5): 14.42%
% inhibition (Histamine, H1): 23.23%
% inhibition (Histamine, H3): 0.0%
inhibition at 400 µM (Muscarinic, M5 (h)): 16%
% inhibition (Opioid, kappa 1): 5.39%
% inhibition [8]: 11.43%
% inhibition (Serotonin, 5HT1B): 2.1%
inhibition at 400 µM (Serotonin, 5HT2A (h)): 19.2%
% inhibition (Serotonin, 5HT3): 10.41%
% inhibition (Sigma 1): 28.43%
% inhibition [9]: 0.45%
% inhibition [10]: 26.95%
% inhibition [11]: 16.14%
% inhibition (Angiotensin II, AT2): 11.32%
% inhibition (Neurokinin, NK1): 12.58%
inhibition at 400 µM (Neurotensin (h)): 4.94%
inhibition at 400 µM [12]: 5.93%
% inhibition (Oxygenase, COX-2): 0.0%
inhibition at 400 µM [13]: 0%
inhibition at 400 µM [14]: 0%
inhibition at 400 µM [15]: 1.48%
inhibition at 400 µM [16]: 8.54%
Brain (whole volume) Eslicarbazepine [17, 19]: 37.5 nmol/g
Plasma eslicarbazepine [17, 19]: 236.2 µmol/L
Brain (whole volume) Eslicarbazepine [17, 20]: 58.7 nmol/g
Plasma eslicarbazepine [17, 20]: 282.8 µmol/L
Brain (whole volume) Eslicarbazepine [17, 21]: 67.7 nmol/g
Plasma eslicarbazepine [17, 21]: 168.1 µmol/L
Brain (whole volume) Eslicarbazepine [17, 22]: 22 nmol/g and 22.0 nmol/g
Plasma eslicarbazepine [17, 22]: 32 µmol/L and 31.5 µmol/L
recovery of fast inactivated channels [18]: recovered similar to control conditions
